Several values for one entry are separate records, joined by “and”; a condition that tells them apart may be missing. Identical values can stand only once. Inconclusive results and toxic doses are left out. Rule for the calls: active = survival T/C of 150% or more; inactive = T/C below 125% in these data.
Tested on: P388 leukemia ip, CD2F1 mice, survival T/C
Test: NCI In Vivo Anticancer Drug Screen. Data for tumor model P388 Leukemia (intraperitoneal) in CD2F1 (CDF1) mice
Settings: endpoint: median survival time, higher = longer survival
Method in brief: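 Mice carrying the transplanted tumor received test compound or vehicle. Survival was recorded in each group, and the value is the treated-group measurement divided by that of the vehicle-treated control group.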

[1] = dose: 60.0 mg/kg/injection, schedule: Q01DX005 (ip), vehicle: saline
[2] = dose: 120.0 mg/kg/injection, schedule: Q01DX005 (ip), vehicle: saline
[3] = dose: 240.0 mg/kg/injection, schedule: Q01DX005 (ip), vehicle: saline
[4] = dose: 60.0 mg/kg/injection, schedule: Q01DX005 (ip), vehicle: saline with Tween-80
[5] = dose: 120.0 mg/kg/injection, schedule: Q01DX005 (ip), vehicle: saline with Tween-80
[6] = dose: 240.0 mg/kg/injection, schedule: Q01DX005 (ip), vehicle: saline with Tween-80

Measured: T/C

O=S(=O)(O)C(O)C(F)(F)C(F)(F)C(F)(F)C(F)(F)C(O)S(=O)(=O)O (stereo unspecified)
inactive: [1] 103 % of control | [2] 103 % of control | [3] 103 % of control

O=C(Nc1ccccc1F)N(CCO)C1CCCCC1
inactive: [4] 93 % of control | [5] 93 % of control | [6] 98 % of control

CCC(c1ccccc1)(c1ccccc1)c1ccccc1
inactive: dose: 100.0 mg/kg/injection, schedule: Q04DX003 (ip), vehicle: saline with Tween-80 98 % of control | dose: 200.0 mg/kg/injection, schedule: Q04DX003 (ip), vehicle: saline with Tween-80 100 % of control | dose: 400.0 mg/kg/injection, schedule: Q04DX003 (ip), vehicle: saline with Tween-80 94 % of control

CCCCCCCC1(O)OC(=O)C(C)=C1C (stereo unspecified)
inactive: dose: 12.5 mg/kg/injection, schedule: Q04DX003 (ip), vehicle: saline with Tween-80 101 % of control | dose: 25.0 mg/kg/injection, schedule: Q04DX003 (ip), vehicle: saline with Tween-80 108 % of control | dose: 50.0 mg/kg/injection, schedule: Q04DX003 (ip), vehicle: saline with Tween-80 100 % of control

O=[N+]([O-])c1nc2ccccc2[nH]1
inactive: dose: 6.25 mg/kg/injection, schedule: Q01DX009 (ip), vehicle: saline with Tween-80 101 % of control | dose: 12.5 mg/kg/injection, schedule: Q01DX009 (ip), vehicle: saline with Tween-80 101 % of control | dose: 25.0 mg/kg/injection, schedule: Q01DX009 (ip), vehicle: saline with Tween-80 111 % of control | dose: 50.0 mg/kg/injection, schedule: Q01DX009 (ip), vehicle: saline with Tween-80 108 % of control

CC(C)(O)C#CC(F)(F)C(F)(F)C(F)(F)C(F)(F)C(F)(F)C(F)(F)F
inactive: [1] 107 % of control | [2] 105 % of control | [3] 103 % of control

Cc1nc2ccccc2c(=O)n1N1C2CCCC21 (stereo unspecified)
inactive: dose: 50.0 mg/kg/injection, schedule: Q04DX002 (ip), vehicle: Klucel (hydroxypropylcellulose) (HPC) 103 % of control | dose: 100.0 mg/kg/injection, schedule: Q04DX002 (ip), vehicle: Klucel (hydroxypropylcellulose) (HPC) 98 % of control | dose: 200.0 mg/kg/injection, schedule: Q04DX002 (ip), vehicle: Klucel (hydroxypropylcellulose) (HPC) 100 % of control

O=C(O)C(Cc1ccccc1)NSc1ccccc1[N+](=O)[O-] (stereo unspecified)
inactive: dose: 25.0 mg/kg/injection, schedule: Q01DX009 (ip), vehicle: distilled water + Tween-80 98 % of control and 100 % of control | dose: 50.0 mg/kg/injection, schedule: Q01DX009 (ip), vehicle: distilled water + Tween-80 107 % of control | dose: 100.0 mg/kg/injection, schedule: Q01DX009 (ip), vehicle: distilled water + Tween-80 100 % of control and 116 % of control | dose: 200.0 mg/kg/injection, schedule: Q01DX009 (ip), vehicle: distilled water + Tween-80 109 % of control

CCCNCC/C=C/[Si](C)(C)C
inactive: [1] 105 % of control | [2] 100 % of control

CCOC(=O)C1=C(C(=O)c2ccc(OC)cc2)C(c2ccc([N+](=O)[O-])cc2)C(C(=O)c2ccc(OC)cc2)=C(C(=O)OCC)N1
inactive: [4] 89 % of control | [5] 89 % of control | [6] 93 % of control

COc1ccc(B(C)N2CCCCC2C)cc1 (stereo unspecified)
inactive: dose: 50.0 mg/kg/injection, schedule: Q01DX005 (ip), vehicle: saline with Tween-80 102 % of control | dose: 100.0 mg/kg/injection, schedule: Q01DX005 (ip), vehicle: saline with Tween-80 100 % of control | dose: 200.0 mg/kg/injection, schedule: Q01DX005 (ip), vehicle: saline with Tween-80 98 % of control

S=c1[nH]ccn1-c1c(Cl)cccc1Cl
inactive: dose: 50.0 mg/kg/injection, schedule: Q01DX009 (ip), vehicle: Klucel (hydroxypropylcellulose) (HPC) 99 % of control | dose: 100.0 mg/kg/injection, schedule: Q01DX009 (ip), vehicle: Klucel (hydroxypropylcellulose) (HPC) 100 % of control

C/C=C\c1noc2c1C(=O)OC(C)C2 (stereo unspecified)
inactive: [4] 104 % of control | [5] 96 % of control | [6] 103 % of control

CCc1cccc(CC)c1NC(=O)OCCN(CC)CC
inactive: [4] 100 % of control | [5] 94 % of control

COc1cc2c(cc1OC)C13CCN4CC5=CCOC(CC(=O)O)C(C5CC41)C3N2 (stereo unspecified)
inactive: dose: 15.0 mg/kg/injection, schedule: Q01DX005 (ip), vehicle: saline 100 % of control | dose: 30.0 mg/kg/injection, schedule: Q01DX005 (ip), vehicle: saline 96 % of control | [4] 99 % of control | [1] 94 % of control and 93 % of control | [2] 96 % of control

— PubChem BioAssay AID330 (DTP/NCI, 2004)
